Laboratory results taken from patent US12128079B2, “Enteric aerobization therapy” (LPOXY THERAPEUTICS, INC., priority 2021, dated 2024).
“Also recorded” adds a separate entry of the source. Read-outs that look alike come from different tables or passages of the source.

Tests used:
[1] = test system: Clostridioides difficile ATCC 43255; details: for clinical severity / clinical observations versus infection control group: FIGS. 7-10; for animals showing clinical signs of infection (recurrence) in the 2nd week after inoculation and treatment: days 8-14; for survival: mice followed 14 days after inoculation, treatment day 0 to day 4; for onset of action / cure rate: mouse CDI model; for cure rate: 14 days after inoculation
From the text: Thirty C57BL/6 female mice (18-22 g) fitted with duodenal catheters externalized and fitted with access button ports were purchased from Charles River Laboratories and singly housed in a temperature and humidity-controlled room with a 12-hour light cycle. The mice were divided into 3 groups of 10. All procedures used in these experimental protocols were in compliance with the Animal Welfare Act, the Guide for the Care and Use of Laboratory Animals, and the Office of Laboratory Animal Welfare.
The mice were pretreated with an antibiotic cocktail in their drinking water for 8 consecutive days. This antibiotic cocktail was composed of 1% glucose, 500 mcg/mL kanamycin, 44 mcg/mL gentamicin, 1062.5 units per milliliter colistin, 269 mcg/mL metronidazole, 156 mcg/mL ciprofloxacin, 100 mcg/mL ampicillin, and 56 mcg/mL vancomycin. The antibiotic cocktail and drinking water were replaced every 2 to 3 days. Five days prior to infection the antibiotic water was removed and normal drinking water was provided to the animals. Three days prior to infection the animals received a single dose of clindamycin 10 mg per kilogram via oral administration in a volume of 10 mL per kilogram.
On study Day 0 mice were inoculated with the bacterial suspension of 5×10^5 CFU Clostridioides difficile ATCC 43255 via oral gavage. Eight hours after inoculation administration of vehicle, antibiotic control, and test article was initiated according to the following. The vehicle a.k.a. infection control group of 10 mice received 80 μL per hour 100% pure nitrogen gas via duodenal catheter. The infection control group of 10 mice received 50 mg/kg vancomycin via oral gavage once daily. […] Administration was continued from study day 0 to study day 4, a total of 5 days. The mice were followed for 14 days after inoculum recording daily weights and clinical observations. Animals that appeared severely moribund were euthanized. At the end of the study all animals were humanely euthanized.

[2] = up to the maximum bolus tested, 200 microliters every 6 hours (8 mL/kg per bolus; 32 mL/kg/day)
Method: In a separate experiment using the above conditions the tolerance of bolus injection of 100% oxygen gas was tested.

Row | SMILES | clinical severity / clinical observations versus infection control group [1] | clinical severity / clinical observations versus infection control group ([1]; listed as Enteric aerobization therapy) | animals showing clinical signs of infection (recurrence) in the 2nd week after inoculation and treatment [1] | adverse effects due to gas infusion ([1]; infusion via duodenal catheter 3.2 mL/kg/hr, 76.8 mL/kg/day) | survival [1] | onset of action [1] | cure rate [1] | adverse effects of bolus injection [2] | animals showing clinical signs of infection (recurrence) in the 2nd week after inoculation and treatment ([1]; listed as antibiotic control group)
1 | O=O [EAT, oxygen] | fewer sick animals compared to the infection control group; also recorded: mildly ill compared to the infection control group | reduces the severity of disease, accelerates recovery | no recurrent infections | no adverse effects | 100% | slower onset of action | 100% | No adverse effects were observed | –
2 | CN[C@H](CC(C)C)C(=O)N[C@H]1C(=O)N[C@@H](CC(N)=O)C(=O)N[C@H]2C(=O)N[C@H]3C(=O)N[C@H](C(=O)N[C@H](C(=O)O)c4cc(O)cc(O)c4-c4cc3ccc4O)[C@H](O)c3ccc(c(Cl)c3)Oc3cc2cc(c3O[C@@H]2O[C@H](CO)[C@@H](O)[C@H](O)[C@H]2O[C@H]2C[C@](C)(N)[C@H](O)[C@H](C)O2)Oc2ccc(cc2Cl)[C@H]1O [vancomycin, reference compound] | – | – | 70% | – | 100% | more rapid onset of action | 30% | – | Seventy
